The source of these data is ChEMBL document CHEMBL1201862, “PubChem BioAssay data set” (2004).

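Where inhibition never reached the appropriate level, the endpoint shown equals the highest concentration tested. Otherwise, values were interpolated linearly from a five-concentration, 48-hour dose response in 96-well plates. Here, GI50 denotes the concentration required for 50% inhibition of growth.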 Active and inactive are the calls of the source. Cut-off read from the data, not from the text of the source: active = GI50 up to about 1.1 µM and inactive = higher. Where a SMILES comes first, the peptide text is derived from it. [ ]: non-standard residue; d: D form. pGlu = O=C1CC[CH](C(=O)O)N1

Assay in all cases: DTP human tumour cell line panel, 48 h
For assay [1], the system named is 786-0.
Assay [2] deals with CAKI-1.
Assay [3] deals with COLO 205.
For assay [4], the system named is DU-145.
The test system of assay [5] is HCT-15.
The test system of assay [6] is HL-60.
The test system of assay [7] is HOP-62.
Assay [8] concerns HT-29.
Assay [9] deals with IGROV-1.
Assay [10] has as its system M14.
Assay [11] deals with NCI-H23.
The subject of assay [12] is NCI-H522.
Assay [13] concerns OVCAR-4.
For assay [14], the system named is PC-3.
Assay [15] relates to RPMI-8226.
Assay [16] relates to RXF 393.
Assay [17] relates to SR.
Assay [18] deals with SW-620.
The subject of assay [19] is UO-31.
The subject of assay [20] is UACC-257.

For orientation: GI50 means the concentration giving 50% growth inhibition. As to `Cc1ccc(-c2cc(-c3ccco3)c(C#N)c(=S)[nH]2)cc1`, the GI50 in [1] was 77.3 µM (inactive); in [2] it was > 100 µM (inactive); in [3] it was 97.3 µM (inactive); in [4], 93.5 µM (inactive); in assay [5] it was 42 µM; in assay [6] it was 57 µM (inactive). The GI50 in assay [7] was > 100 µM (inactive); in assay [8] it was 92.3 µM (inactive); in assay [9] it was 25.7 µM (inactive); in assay [10] it was 63.8 µM (inactive); in assay [11], 29.9 µM (inactive); in assay [12], 44.2 µM (inactive). In addition, the GI50 in assay [13] is 75.5 µM (inactive); in assay [14] it was 28.3 µM (inactive); in assay [15], 35.5 µM (inactive); in assay [16] it was 55.8 µM (inactive); in assay [17], 42.5 µM (inactive); in assay [18] it was 53.3 µM (inactive). Further, the GI50 in assay [19] is 33.9 µM (inactive).

Consider `Cc1ccc(S(=O)(=O)N2CCC[C@@H]2C(=O)O[C@@H]2CCC3CC=CC32)cc1` (stereo partly drawn), for which the GI50 is 19.9 µM (inactive) in assay [1]; 16.6 µM (inactive) in assay [3]; 45.6 µM (inactive) in assay [4]; 32.7 µM in [5]; 11.5 µM (inactive) in assay [6]; 29.9 µM (inactive) in [7]. The GI50 was 24 µM (inactive) in assay [8]; 39.9 µM (inactive) in assay [9]; 34.6 µM (inactive) in assay [10]; 35.1 µM (inactive) in assay [11]; 18.9 µM (inactive) in assay [12]; 47 µM (inactive) in [13]. In addition, the GI50 was 21.4 µM (inactive) in [14]; 18.7 µM (inactive) in [15]; 20 µM (inactive) in [16]; 11.6 µM (inactive) in assay [17]; 40.3 µM (inactive) in [18]; 22.2 µM (inactive) in [20]. In [19], the GI50 is 13.6 µM (inactive).

Consider `Cc1cc(C)n(C(C)(C(=O)Cc2ccccc2)n2nc(C)cc2C)n1`, for which the GI50 is > 100 µM (inactive) in assay [1]; > 100 µM (inactive) in assay [2]; > 100 µM (inactive) in assay [3]; > 100 µM (inactive) in assay [4]; > 100 µM in assay [5]; > 100 µM (inactive) in assay [6]. For the same compound, the GI50 in [7], in assay [8], in [9], in [10], in assay [11] and in assay [12] was > 100 µM (inactive) in each case. Further, the GI50 in [13], in [14], in [15], in assay [16], in [17] and in assay [18] was > 100 µM (inactive) throughout. For the same compound, the GI50 in assay [19] is > 100 µM (inactive).

With `CCN1CCC(O)(/C=C/c2cccc(C)c2)C(C(=O)/C=C/c2cccc(C)c2)C1` (stereo not drawn), the GI50 in assay [1] was 2.26 µM (inactive); in assay [2], 2 µM (inactive); in [3], 1.95 µM (inactive); in assay [4] it was 3.94 µM (inactive); in [5] it was 2.25 µM; in [6], 61.4 µM (inactive). The GI50 in [8] was 1.52 µM (inactive); in assay [9], 1.94 µM (inactive); in [10] it was 2.58 µM (inactive); in assay [11] it was 2.21 µM (inactive); in assay [12], 2.21 µM (inactive); in assay [13], 4.31 µM (inactive). Further, the GI50 in [14] was 13.3 µM (inactive); in [15], 1.77 µM (inactive); in assay [16] it was 1.67 µM (inactive); in [17], 3.74 µM (inactive); in assay [18], 2.29 µM (inactive); in [20], 2.53 µM (inactive). The GI50 in assay [19] was 1.69 µM (inactive).

As for `COc1cc(C(=O)O[C@@H]2[C@@H](OC(=O)c3cc(OC)c(OC)c(OC)c3)[C@@H](OC)O[C@@H]3CO[C@@H](c4ccccc4)O[C@@H]23)cc(OC)c1OC`, the GI50 was > 100 µM (inactive) in [1]; > 100 µM (inactive) in [2]; > 100 µM (inactive) in [3]; > 100 µM (inactive) in assay [4]; > 100 µM in assay [5]; > 100 µM (inactive) in assay [6]. For the same compound, the GI50 in assay [7], in assay [8], in [9], in assay [10], in assay [11] and in [12] was > 100 µM (inactive) each time. Besides, the GI50 in assay [13], in assay [14], in [15], in assay [17], in assay [18] and in assay [20] was > 100 µM (inactive) in each case. In assay [19], the GI50 was > 100 µM (inactive).

On to `CCOC(=O)Cc1nc2sc(S(N)(=O)=O)nn2c1Br`, for which the GI50 was 23.2 µM (inactive) in assay [1]; 17.2 µM (inactive) in assay [2]; 39.4 µM (inactive) in assay [3]; 33.9 µM (inactive) in assay [4]; 23.7 µM in [5]; 25.5 µM (inactive) in assay [6]. For the same compound, the GI50 is > 100 µM (inactive) in assay [7]; 19.4 µM (inactive) in [8]; 28.4 µM (inactive) in assay [9]; 15.7 µM (inactive) in [10]; 27.6 µM (inactive) in [11]; 19.1 µM (inactive) in [12]. In addition, the GI50 in [14] is 22 µM (inactive); in assay [15], 17.3 µM (inactive); in assay [16], 21.7 µM (inactive); in assay [17] it was 40.6 µM (inactive); in assay [18], 23.6 µM (inactive); in assay [20] it was 29.9 µM (inactive). In [19], the GI50 was 15.8 µM (inactive).

As for `COc1ccc(OC2OC(COC(c3ccccc3)(c3ccc(OC)cc3)c3ccc(OC)cc3)C(O)C(O)C2O)cc1` (stereo not drawn), the GI50 in [1] is 2.32 µM (inactive); in assay [2], 4.75 µM (inactive); in assay [3] it was 3.85 µM (inactive); in assay [4] it was 21.3 µM (inactive); in assay [5] it was 2.86 µM; in assay [6], 2.58 µM (inactive). Also, the GI50 in assay [7] was 11.4 µM (inactive); in assay [8], 2.4 µM (inactive); in assay [9], 5.93 µM (inactive); in assay [10], 2.84 µM (inactive); in [11], 3.66 µM (inactive); in assay [12], 3.49 µM (inactive). In addition, the GI50 in [14] was 2.09 µM (inactive); in assay [15] it was 4.47 µM (inactive); in assay [17], 3.74 µM (inactive); in assay [18], 3.77 µM (inactive); in assay [20], 6.64 µM (inactive); in assay [19] it was 2.06 µM (inactive).

As to `NCCCCNCCCN1CCOC1=O`, the GI50 in assay [1] was > 100 µM (inactive); in assay [2], > 100 µM (inactive); in assay [3], > 100 µM (inactive); in assay [4] it was > 100 µM (inactive); in assay [5], > 100 µM; in [6], > 100 µM (inactive). Besides, the GI50 in [7], in [8], in assay [9], in [10], in [11] and in assay [12] was > 100 µM (inactive) throughout. Moreover, the GI50 in assay [14], in assay [15], in assay [17], in assay [18], in [20] and in assay [19] was > 100 µM (inactive) each time.

Take `COC(=O)C1=C(O)C(C(=O)OC)[C@@]2(O)[C@@H](C(=O)OC)C(c3ccc(OC(=O)/C(=C/c4ccc(Cl)cc4)c4ccc(Cl)cc4)cc3)C[C@@H]1[C@@H]2C(=O)OC` (stereo partly drawn): the GI50 in assay [1] was 22 µM (inactive); in assay [2], 15.9 µM (inactive); in assay [3], 24 µM (inactive); in assay [4], 39 µM (inactive); in [5], 18.5 µM; in [6], 34.6 µM (inactive). Also, the GI50 in [7] is > 100 µM (inactive); in assay [8] it was 38.5 µM (inactive); in assay [9] it was 20.2 µM (inactive); in [10], 15.6 µM (inactive); in [11], 50.1 µM (inactive); in assay [12], 36.6 µM (inactive). Also, the GI50 was 20.6 µM (inactive) in [13]; 24.1 µM (inactive) in assay [14]; 11.2 µM (inactive) in assay [16]; 9.06 µM (inactive) in assay [17]; 31.1 µM (inactive) in assay [18]; 52.6 µM (inactive) in [20]. Further, the GI50 in [19] was 12.6 µM (inactive).

Consider `CC(NC(=O)C1CCC(=O)N1)C(=O)N1CCCC1C(N)=O` (stereo not drawn) ([pGlu]-Ala-Pro-NH2; configuration not given here), for which the GI50 in assay [1] was 61.7 µM (inactive); in [2], > 100 µM (inactive); in assay [3], > 100 µM (inactive); in [4], > 100 µM (inactive); in [5] it was > 100 µM; in assay [6], > 100 µM (inactive). Also, the GI50 in assay [7], in [8], in assay [9], in assay [10], in [11] and in assay [12] was > 100 µM (inactive) throughout. Also, the GI50 in assay [13], in assay [14], in assay [15], in [16], in [17] and in assay [18] was > 100 µM (inactive) in each case. Also, the GI50 in assay [19] was > 100 µM (inactive).
